Where “and” joins values, the source holds several entries; their conditions need not be identical. Equal values may be shown once. Read-outs that look alike come from different tables or passages of the source.
Assay: Pharmacokinetic parameters in rats
Type: in vivo, SD rats
Settings: rat
Procedure: In the example, SD rats (180-220 g, male) (purchased from Experimental Animal Center of Anhui Medical University, China) were used. The animals were kept in cages ventilated independently with 6 rats per cage. The feeding was performed at a temperature of 20˜26° C. and a humidity of 35-75%. The light condition was 12 hours of lighting/12 hours of darkness. The corncob bedding was refreshed once a week. The rats were fed with foods and drinking water on an ad libitum basis. The rats were marked with a number on the tails. During the experiment, the breeding and use of animals strictly follow the regulations of Association for Assessment and Accreditation of Laboratory Animal Care International.
Solutions of Compound 16 and Comparative Compound 1 were prepared as follows. 10 mg of the compound to be tested was precisely weighed into a sterile vial, and was dissolved with a small amount of DMSO, and then was made to a constant volume of 5 ml with 5% glucose solution, to give a gavage test solution at a concentration of 2 mg/mL. 0.5 ml of the above gavage test solution at a concentration of 2 mg/mL was precisely taken, and was made to constant volume of 5 ml with 4.5 ml of 5% glucose solution, to give an intravenous injection test solution at a concentration of 0.2 mg/mL. The solution was prepared immediately before being used in the experiment.
6 SD rats were randomly divided into two groups, and the synthesized compounds were administered by gavage and tail vein injection, respectively. About 0.3 mL of blood samples were collected from the retro-orbital venous plexus at 0 h before administration and at 5 min, 15 min, 30 min, 1 h, 1.5 h, 2 h, 4 h, 6 h, 9 h, 12 h, 24 h after administration for the gavage group; and at 0 h before administration and at 2 min, 5 min, 15 min, 30 min, 1 h, 2 h, 4 h, 6 h, 9 h, and 12 h after administration for the tail vein group. Each of the collected blood samples was put in a 1.5 mL centrifuge tube with heparin (Sigma, USA). The sample was centrifuged at 6000 rpm for 3 min to separate the plasma. 100 μL of plasma in the upper layer was placed into a new 1.5 mL centrifuge tube, and stored at −80° C. for determination. 10 mg of a standard for the compound to be tested was precisely weighed into a 10 mL volumetric flask, and was dissolved by adding methanol to make a constant volume and mixed uniformly, to give a 1 mg/mL stock solution. The stock solution was then diluted gradually with methanol to give a series of working solutions at concentrations of 0.01, 0.02, 0.05, 0.1, 0.2, 0.5, 1, 2, 5, 10, 20 μg/mL. The working solutions were placed in a refrigerator at 4° C. for later use. 11 centrifuge tubes were used. 10 μL of the above working solutions was respectively added to each of the centrifuge tubes, and then 90 μL of blank rat plasma was respectively added therein. The mixtures were mixed uniformly, so that the concentration of the compound in the rat plasma was 1, 2, 5, 10, 20, 50, 100, 200, 500, 1000, 2000 ng/mL. Then, 20 μL of a solution of caffeine as the internal standard (200 ng/mL) (National Institutes for Food and Drug Control, China) was added therein, and the resultant mixtures were vortexed for 10 s. Next, 400 μL of methanol was added. The resultant mixtures were vortexed for 10 min, and centrifuged at 16000 rpm for 5 min. Thereafter, 70 μL of the supernatant was placed into the inserted pipe of a sampling bottle. 5 μL of the sample was introduced for a LC-MS/MS analysis. A standard curve of the compound in the rat plasma was obtained by means of a linear regression performed by taking the ratio of the peak area of the sample to that of the internal standard As/Ais as the vertical ordinate, taking the concentration C (μg/mL) as the horizontal ordinate, and taking 1/C^2 was taken as a weighting coefficient.
To 100 μL of the rat plasma to be tested stored at −80° C., 20 μL of a caffeine solution (200 ng/mL) as the internal standard was added. The resultant mixture was vortexed for 10 s. […]

[1] = male, Sprague-Dawley, plasma, iv, 1 mg/kg, intravenous injection 1 mg/kg, average n=3
[2] = male, Sprague-Dawley, plasma, iv, 1 mg/kg, intravenous injection 1 mg/kg, individual rats #1-#3
[3] = intravenous injection 1 mg/kg, average n=3
[4] = intravenous injection 1 mg/kg, individual rats #1-#3, 1 mg/kg
[5] = oral administration (gavage) 10 mg/kg, average n=3
[6] = oral administration (gavage) 10 mg/kg, individual rats #1-#3, 10 mg/kg

`Cc1ccc(NC(=O)c2cccc(C(F)(F)F)c2)cc1-n1cc(-c2cncc(N3CCOCC3)c2)cn1` [Example 16, N-(4-methyl-3-(4-(5-morpholinopyrid-3-yl)-1H-pyrazol-1-yl)phenyl)-3-(trifluoromethyl)benzamide] showed an AUC(0-inf) (male, SD, plasma, po, 10 mg/kg, oral administration (gavage) 10 mg/kg, average n=3) of 11000 ng·h/mL, a Tmax (male, SD, plasma, po, 10 mg/kg, oral administration (gavage) 10 mg/kg, average n=3, read-out: Tmax) of 0.67 h and a half-life (male, SD, plasma, po, 10 mg/kg, oral administration (gavage) 10 mg/kg, average n=3, read-out: T½ (converted)) of 3.02 h. For the same compound, the AUC(0-inf) (male, SD, plasma, po, 10 mg/kg, oral administration (gavage) 10 mg/kg, individual rats #1-#3) was 13500 ng·h/mL, the AUC0-t (male, SD, plasma, po, 10 mg/kg, oral administration (gavage) 10 mg/kg, individual rats #1-#3, read-out: AUC0-t) was 13400 ng·h/mL and the Tmax (male, SD, plasma, po, 10 mg/kg, oral administration (gavage) 10 mg/kg, individual rats #1-#3, read-out: Tmax) was 0.5 h. For the same compound, the half-life (male, SD, plasma, po, 10 mg/kg, oral administration (gavage) 10 mg/kg, individual rats #1-#3, read-out: T½ (converted)) was 3.19 h, the AUC(0-inf) [1] was 765 ng·h/mL and the clearance [1] was 21.9 mL/min/kg. It also gave an AUC0-t (male, Sprague-Dawley, plasma, iv, 1 mg/kg, intravenous injection 1 mg/kg, average n=3, read-out: AUC0-t) of 742 ng·h/mL, a C0 (male, Sprague-Dawley, plasma, iv, 1 mg/kg, intravenous injection 1 mg/kg, average n=3, read-out: C0) of 1120 ng/mL and a Cmax (male, Sprague-Dawley, plasma, iv, 1 mg/kg, intravenous injection 1 mg/kg, average n=3, read-out: Cmax) of 914 ng/mL. It also gave an MRT last (male, Sprague-Dawley, plasma, iv, 1 mg/kg, intravenous injection 1 mg/kg, average n=3, read-out: MRT0-t) of 1.89 h, an MRT inf (male, Sprague-Dawley, plasma, iv, 1 mg/kg, intravenous injection 1 mg/kg, average n=3, read-out: MRT0-∞) of 2.33 h and a Tmax (male, Sprague-Dawley, plasma, iv, 1 mg/kg, intravenous injection 1 mg/kg, average n=3, read-out: Tmax) of 0.033 h. It also gave a half-life (male, Sprague-Dawley, plasma, iv, 1 mg/kg, intravenous injection 1 mg/kg, average n=3, read-out: T½ (converted)) of 3.01 h, a Vd (male, Sprague-Dawley, plasma, iv, 1 mg/kg, intravenous injection 1 mg/kg, average n=3, read-out: Vz) of 5.66 L/kg and an AUC(0-inf) [2] of 861 ng·h/mL. For the same compound, the clearance [2] was 19.4 mL/min/kg, the AUC0-t (male, Sprague-Dawley, plasma, iv, 1 mg/kg, intravenous injection 1 mg/kg, individual rats #1-#3, read-out: AUC0-t) was 822 ng·h/mL and the C0 (male, Sprague-Dawley, plasma, iv, 1 mg/kg, intravenous injection 1 mg/kg, individual rats #1-#3, read-out: C0) was 1310 ng/mL. For the same compound, the Cmax (male, Sprague-Dawley, plasma, iv, 1 mg/kg, intravenous injection 1 mg/kg, individual rats #1-#3, read-out: Cmax) was 1020 ng/mL, the MRT last (male, Sprague-Dawley, plasma, iv, 1 mg/kg, intravenous injection 1 mg/kg, individual rats #1-#3, read-out: MRT0-t) was 2.08 h and the MRT inf (male, Sprague-Dawley, plasma, iv, 1 mg/kg, intravenous injection 1 mg/kg, individual rats #1-#3, read-out: MRT0-∞) was 2.75 h. The Tmax (male, Sprague-Dawley, plasma, iv, 1 mg/kg, intravenous injection 1 mg/kg, individual rats #1-#3, read-out: Tmax) was 0.033 h, the half-life (male, Sprague-Dawley, plasma, iv, 1 mg/kg, intravenous injection 1 mg/kg, individual rats #1-#3, read-out: T½ (converted)) was 3.59 h and the Vd (male, Sprague-Dawley, plasma, iv, 1 mg/kg, intravenous injection 1 mg/kg, individual rats #1-#3, read-out: Vz) was 6.01 L/kg. It also gave a bioavailability (male, Sprague-Dawley, plasma, oral, 10 mg/kg, oral administration (gavage) 10 mg/kg vs intravenous 1 mg/kg, average n=3, read-out: F (oral bioavailability)) of 144%, an AUC0-t (male, Sprague-Dawley, plasma, po, 10 mg/kg, oral administration (gavage) 10 mg/kg, average n=3, read-out: AUC0-t) of 10900 ng·h/mL and a Cmax (male, Sprague-Dawley, plasma, po, 10 mg/kg, oral administration (gavage) 10 mg/kg, average n=3, read-out: Cmax) of 1480 ng/mL. The MRT last (male, Sprague-Dawley, plasma, po, 10 mg/kg, oral administration (gavage) 10 mg/kg, average n=3, read-out: MRT0-t) was 6.62 h, the MRT inf (male, Sprague-Dawley, plasma, po, 10 mg/kg, oral administration (gavage) 10 mg/kg, average n=3, read-out: MRT0-∞) was 6.81 h and the MRT last (male, Sprague-Dawley, plasma, po, 10 mg/kg, oral administration (gavage) 10 mg/kg, individual rats #1-#3, read-out: MRT0-t) was 5.99 h. For the same compound, the MRT inf (male, Sprague-Dawley, plasma, po, 10 mg/kg, oral administration (gavage) 10 mg/kg, individual rats #1-#3, read-out: MRT0-∞) was 6.19 h, the AUMC0-t [3] was 1413 hr*hr*ng/ml and the “AUMC0-∞” value [3] was 1805 hr*hr*ng/ml. For the same compound, the AUC0-t [4] was 680 ng·h/mL and 723 ng·h/mL, the “AUC0-∞” value [4] was 694 ng·h/mL and 742 ng·h/mL and the AUMC0-t [4] was 1708 hr*hr*ng/ml and 1207 hr*hr*ng/ml and 1326 hr*hr*ng/ml. For the same compound, the “AUMC0-∞” value [4] was 2368 hr*hr*ng/ml and 1418 hr*hr*ng/ml and 1630 hr*hr*ng/ml, the C0 [4] was 933 ng/mL and 1116 ng/mL and the Cl [4] was 24.03 mL/min/kg and 22.47 mL/min/kg. For the same compound, the Cmax [4] was 796 ng/mL and 925 ng/mL, the MRT0-t [4] was 1.77 h and 1.83 h and the “MRT0-∞” value [4] was 2.04 h and 2.20 h. For the same compound, the T½ [4] was 2.62 h and 2.84 h, the Vz [4] was 5.441 L/kg and 5.521 L/kg and the “F (oral bioavailability)” value (oral administration (gavage) 10 mg/kg vs intravenous 1 mg/kg, individual rats #1-#3) was 176.1% and 157.7% and 98.3%. For the same compound, the AUMC0-t [5] was 70219 hr*hr*ng/ml, the “AUMC0-∞” value [5] was 72777 hr*hr*ng/ml and the Cl [5] was 16.1 mL/min/kg. For the same compound, the Vz [5] was 4.204 L/kg, the AUC0-t [6] was 11999 ng·h/mL and 7435 ng·h/mL and the “AUC0-∞” value [6] was 12067 ng·h/mL and 7520 ng·h/mL. The AUMC0-t [6] was 80004 hr*hr*ng/ml and 72172 hr*hr*ng/ml and 58480 hr*hr*ng/ml, the “AUMC0-∞” value [6] was 83364 hr*hr*ng/ml and 74076 hr*hr*ng/ml and 60891 hr*hr*ng/ml and the Cl [6] was 12.4 mL/min/kg and 13.8 mL/min/kg and 22.17 mL/min/kg. For the same compound, the Cmax [6] was 2090 ng/mL and 1710 ng/mL and 645 ng/mL, the MRT0-t [6] was 6.01 h and 7.87 h and the “MRT0-∞” value [6] was 6.14 h and 8.10 h. The Tmax [6] was 1 h, the T½ [6] was 2.86 h and 3.01 h and the Vz [6] was 3.418 L/kg and 3.42 L/kg and 5.773 L/kg.
